Assay results taken from patent US7033829B2, “Method to inhibit cell growth using oligonucleotides” (Trustees of Boston University, priority 2000, dated 2006).
Oligonucleotides are written 5' to 3', each unit as a sugar letter and its base; * is a phosphorothioate linkage, no mark a phosphodiester; rarer units and linkages stand in square brackets, end groups in braces. Plain capitals give the bases only. d = 2'-deoxy (DNA); {P} = phosphate

Assays:
[1] = tested on: MM-AN cells; assay: Metastatic potential of pretreated MM-AN cells in SCID mice; type: in vivo; settings: for animals that developed multiple metastases: 5 mice per group, 40 days; for METASTASIS FREE: animals of 5; for Total Tumor Load (5 animals): mouse, in vivo; for Average tumors per animal: visible tumors, 40 days (diluent 15.8)
Method: To study the effect of T-oligo on the metastatic potential of melanoma cells, cultures of MM-AN cells were treated for 48 hours with T-oligo, complement or diluent alone and harvested as described above. 1×10^6 cells in balanced salt solution were injected into the lateral tail vein of 5-week old SCID mice (3 groups of 5 mice). After 40 days, mice were sacrificed by CO2 inhalation, an autopsy performed and organs examined macroscopically for visible metastatic lesions.

[2] = tested on: telomere length; assay: Mean telomere length in fibroblasts; type: cell-based, human; settings: for MTL values: 40 μM, 5 days (diluent 10.59)
Method: Cells were plated at a density of 180,000 cells/ml in RPMI 1640 medium supplemented with 3% FBS. Cells were treated with 40 μM of either of the oligonucleotides for 72 hours. Cells were then collected, washed and fixed for 30 minutes in 4% paraformaldehyde and then permeabilized with 0.1% Triton X-100 for 2 minutes. The TUNEL assay was carried out with components and instructions of the In Situ Cell Death Detection Kit using fluorescein-labeled dUTP from Boehringer Mannheim. TUNEL-positive cells were detected by FACS analysis and confocal microscopy. Cellular Uptake of Oligonucleotides For confocal analysis, Jurkat cells were plated on Permanox chamber slides (Lab-Tek, Naperville, Ill.) and treated for 4 hours with fluorescein phosphoramidite (FAM)-labeled oligonucleotides (Research Genetics, Inc., Huntsville, Ala.). Adherent cells were fixed in 4% paraformaldehyde in PBS, stained with propidium iodide (PI) to identify nuclei, mounted with Slowfade reagent (Molecular Probes, Eugene, Oreg.), covered with a coverslip and stored at 4° C. in the dark. Uptake of the oligonucleotides was assessed in 5–10 μm sections with a Carl Zeiss LSM 510 confocal laser microscope. Computer images assign green to the FAM-oligonucleotides, red to PI, and yellow to co-localization of the signals. FACS analysis was performed on Jurkat cells identically treated with the FAM-oligonucleotides for 4 hours, then fixed in 0.5 ml of 4% paraformaldehyde overnight at 4° C. Fluorescence was measured on the FL-1 channel. Western Blot Analysis and Antibodies Western blot analysis was performed as previously described [Eller, M. S., et al., (1996), Proc Natl Acad Sci USA 93, 1087–1092]. Antibody Ab-6 (DO-1 clone, Oncogene Research Products, Cambridge, Mass.) detected p53; antibody KH95 (Santa Cruz Biotechnology, Inc., Santa Cruz, Calif.) detected E2F1; antibody Ab-4 (Oncogene Research products) detected p73. Phospho-p53 (serine 15) was detected using the #9284 polyclonal antibody and phospho-p95/Nbs1 (serine 343) was detected by a phospho-p95/Nbs1-specific polyclonal antibody, both antibodies from Cell Signaling Technology (Beverly, Mass.). p95/Nbs1 antibody (#NB-100-143, Novus Biologicals, Littleton, Colo.) and an actin antibody (I-19, Santa Cruz Biotechnology, Santa Cruz, Calif.) were also used. […] After the indicated times, total protein was collected and analyzed by 8% PAGE and western blot using a polyclonal antibody to p95/Nbs1 (#NB-100-143, Novus Biologicals, Littleton, Colo.). […] Telomere length was determined essentially as described by van Steensel and de Lange (van Steensel, B. and T. de Lange. 1997, Nature 385: 740–743) using the Telo TAGGG Telomere Length Assay from Roche Molecular Biochemicals (Indianapolis, Ind.) and the protocol supplied by the manufacturer. […]

[3] = tested on: Apurinic Endonuclease-1 (APE-1); assay: APE-1 western blot in fibroblasts; type: cell-based, human; settings: 100 μM pTpT; 10 μM or 60 μM SEQ ID NO:5; within 24 hours, sustained at least 48 hours
Method: Fibroblasts (human newborn) were maintained in 10% CS-supplemented DMEM containing 100 μM pTpT, 10 μM or 60 μM oligonucleotide pGTTAGGGTTAG (SEQ ID NO:5), or diluent as control. Total cellular proteins were harvested at different intervals after supplementation and processed for western blot analysis. Expression of APE-1, the rate-limiting enzyme in repair of 8-oxoguanine (the principal form of oxidative DNA damage) was studied. The blot was incubated with anti APE-1 antibodies (APE/Ref-1 monoclonal IgG2b, Novus Biologicals, Inc. Littleton, Colo.). Within 24 hours of supplementation with pTpT or the 11mer oligonucleotide having nucleotide sequence SEQ ID NO:5, the 37 kDa APE-1 protein was induced in samples stimulated with the oligonucleotides as compared to diluent control. The induction was sustained for at least 48 hours, when the experiment was terminated. Coomassie blue-stained residual bands on the gel confirmed uniform loading of the different lanes.

| Substance | animals that developed multiple metastases [1] | Animals with tumors ([1]; Site: Adrenal) | Total tumors ([1]; Site: Adrenal) | Animals with tumors ([1]; Site: Bone) | Total tumors ([1]; Site: Bone) | Animals with tumors ([1]; Site: Brain) | Total tumors ([1]; Site: Brain) | Animals with tumors ([1]; Site: Brown fat) | Total tumors ([1]; Site: Brown fat) | Animals with tumors ([1]; Site: Kidney) | Total tumors ([1]; Site: Kidney) | Animals with tumors ([1]; Site: Liver) | Total tumors ([1]; Site: Liver) | Animals with tumors ([1]; Site: Lung) | Total tumors ([1]; Site: Lung) | Animals with tumors ([1]; Site: Miscellaneous) | Total tumors ([1]; Site: Miscellaneous) | Animals with tumors ([1]; Site: Pancreas) | Total tumors ([1]; Site: Pancreas) | MTL values [2] [kilobases] | also measured |
| --- | --- | --- | --- | --- | --- | --- | --- | --- | --- | --- | --- | --- | --- | --- | --- | --- | --- | --- | --- | --- | --- |
| pCTAACCCTAAC (DNA, 5' {P}, backbone not given here) [SEQ ID NO: 9, reference compound] | All five animals | 2/5 | 3 | 1/5 | 3 | 3/5 | 3 | 3/5 | 8 | 4/5 | 7 | 2/5 | 4 | 3/5 | 6 | 1/5 | 7 | 4/5 | 7 | 10.45 | METASTASIS FREE [1]: 0/5; Total Tumor Load (5 animals) [1]: 48; Average tumors per animal [1]: 9.6 |
| pGATCGATCGAT (DNA {P}-dGdAdTdCdGdAdTdCdGdAdT) [SEQ ID NO: 10, reference compound] | – | – | – | – | – | – | – | – | – | – | – | – | – | – | – | – | – | – | – | 10.22 | – |
| pGTTAGGGTTAG (DNA {P}-dGdTdTdAdGdGdGdTdTdAdG) [SEQ ID NO: 5] | one of five animals | 1/5 | 2 | 0/5 | 0 | 1/5 | 2 | 0/5 | 0 | 0/5 | 0 | 0/5 | 0 | 0/5 | 0 | 0/5 | 0 | 0/5 | 0 | 12.25 | METASTASIS FREE [1]: 4/5; reduction of average volume of macroscopic metastatic tumors ([1]; compared to complement treated animals): ~80%; reduction of average volume of macroscopic metastatic tumors ([1]; compared to diluent treated animals): about 85%; Total Tumor Load (5 animals) [1]: 4; Average tumors per animal [1]: 0.8; increase in MTL ([2]; 5-day experiment): approximately 20%; APE-1 protein [3]: induced |
| thymidine dinucleotide [pTpT] | – | – | – | – | – | – | – | – | – | – | – | – | – | – | – | – | – | – | – | – | APE-1 protein [3]: induced |
